Measured values taken from US20240150362A1, “Substituted Pyrrolotriazines” (Molecure S.A., priority 2022, published 2024).
Counter-ions that a name gives are not always drawn.

What follows are molecules tested against T1, full-length USP7 (Homo sapiens, UniProt Q93009) (assay: Enzymatic assay to determine IC50 of USP7 inhibitors (Ubiquitin-Rhodamine 110 cleavage)). Conditions: full-length USP7 0.5-1.0 nM, 0.5 μM Ubiquitin-Rhodamine 110, 30-60 min at 25° C.
T1 construct: A 45 μl reaction volume containing full-length USP7 (0.5-1.0 nM)
Type: biochemical
Outline: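 Full-length USP7 (0.5-1.0 nM) was held in HEPES pH 7.5 with NaCl, 2 mM DTT, BSA and Tween20 for 15 min at room temperature before compound was added. The reaction was started with 0.5 μM ubiquitin-rhodamine 110 (final) and run 30-60 min at 25 °C. Fluorescence (485/535 nm) was fitted to a four-parameter curve for IC50.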

T1 sequence (Q93009 whole entry): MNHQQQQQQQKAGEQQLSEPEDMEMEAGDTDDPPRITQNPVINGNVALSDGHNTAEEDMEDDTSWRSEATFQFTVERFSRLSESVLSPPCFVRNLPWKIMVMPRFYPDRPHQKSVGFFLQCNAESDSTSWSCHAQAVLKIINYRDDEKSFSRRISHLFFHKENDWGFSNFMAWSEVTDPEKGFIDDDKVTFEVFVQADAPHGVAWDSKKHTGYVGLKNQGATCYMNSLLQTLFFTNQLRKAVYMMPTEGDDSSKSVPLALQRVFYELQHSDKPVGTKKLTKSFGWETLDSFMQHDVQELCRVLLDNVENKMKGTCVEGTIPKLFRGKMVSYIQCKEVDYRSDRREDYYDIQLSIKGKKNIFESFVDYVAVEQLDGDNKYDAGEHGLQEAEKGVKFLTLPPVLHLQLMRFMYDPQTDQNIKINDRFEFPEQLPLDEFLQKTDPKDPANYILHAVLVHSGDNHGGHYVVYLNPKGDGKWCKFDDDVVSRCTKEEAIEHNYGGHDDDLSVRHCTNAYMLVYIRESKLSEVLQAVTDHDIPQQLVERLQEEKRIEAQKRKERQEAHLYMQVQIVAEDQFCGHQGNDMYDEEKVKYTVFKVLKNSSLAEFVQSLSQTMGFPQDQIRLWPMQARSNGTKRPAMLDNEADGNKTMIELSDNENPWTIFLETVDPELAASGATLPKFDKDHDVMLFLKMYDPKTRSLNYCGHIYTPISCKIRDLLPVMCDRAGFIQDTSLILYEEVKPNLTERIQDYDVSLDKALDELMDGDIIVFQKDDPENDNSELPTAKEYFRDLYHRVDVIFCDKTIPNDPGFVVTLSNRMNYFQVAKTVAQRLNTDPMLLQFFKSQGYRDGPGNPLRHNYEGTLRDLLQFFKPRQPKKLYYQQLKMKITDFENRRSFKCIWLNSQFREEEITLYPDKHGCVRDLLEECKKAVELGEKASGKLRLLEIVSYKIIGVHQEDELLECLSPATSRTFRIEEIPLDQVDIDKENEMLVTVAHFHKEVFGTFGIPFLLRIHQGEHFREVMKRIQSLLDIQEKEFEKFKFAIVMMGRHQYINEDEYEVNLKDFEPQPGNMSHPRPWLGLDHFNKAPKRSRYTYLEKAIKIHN

IC50, < 500 nM:
C[C@H]1CN(C2CCNC2)c2c(cc(Cl)cc2-c2ncnn3cc(CN4C(=O)C5C(C4=O)C5(C)C)cc23)O1 (stereo partly drawn) [Example 94, 3-((4-((2S)-7-chloro-2-methyl-4-(pyrrolidin-3-yl)-3,4-dihydro-2H-benzo[b][1,4]oxazin-5-yl)pyrrolo[2,1-f][1,2,4]triazin-6-yl)methyl)-6,6-dimethyl-3-azabicyclo[3.1.0]hexane-2,4-dione hydrochloride]
Cc1cc(Cl)cc(-c2ncnn3cc(Cn4c(=O)ccn(CC(F)F)c4=O)cc23)c1CC1CNC[C@H](C)O1 (stereo partly drawn) [Example 95, 3-((4-(5-chloro-3-methyl-2-(((6S)-6-methylmorpholin-2-yl)methyl)phenyl)pyrrolo[2,1-f][1,2,4]triazin-6-yl)methyl)-1-(2,2-difluoroethyl)pyrimidine-2,4(1H,3H)-dione hydrochloride]
Cc1cc(Cl)cc(-c2ncnn3cc(Cn4c(=O)ccn(CCF)c4=O)cc23)c1CC1CNC[C@H](C)O1 (stereo partly drawn) [Example 101, 3-((4-(5-chloro-3-methyl-2-(((6S)-6-methylmorpholin-2-yl)methyl)phenyl)pyrrolo[2,1-f][1,2,4]triazin-6-yl)methyl)-1-(2-fluoroethyl)pyrimidine-2,4(1H,3H)-dione hydrochloride]
Cc1cc(Cl)cc(-c2ncnn3cc(CN4C(=O)CCN(C)C4=O)cc23)c1CC1CNC[C@H](C)O1 (stereo partly drawn) [Example 109, 3-((4-(5-chloro-3-methyl-2-(((6S)-6-methylmorpholin-2-yl)methyl)phenyl)pyrrolo[2,1-f][1,2,4]triazin-6-yl)methyl)-1-methyldihydropyrimidine-2,4(1H,3H)-dione hydrochloride]
Cc1cc(Cl)cc(-c2ncnn3cc(Cn4c(=O)ccn(C(C)C)c4=O)cc23)c1CC1CNC[C@H](C)O1 (stereo partly drawn) [Example 111, 3-((4-(5-chloro-3-methyl-2-(((6S)-6-methylmorpholin-2-yl)methyl)phenyl)pyrrolo[2,1-f][1,2,4]triazin-6-yl)methyl)-1-isopropylpyrimidine-2,4(1H,3H)-dione hydrochloride]
Cn1ccc(=O)n(Cc2cc3c(-c4cc(Cl)cc(Cl)c4CC4CNCCO4)ncnn3c2)c1=O (centres unmarked) [Example 118, 3-((4-(3,5-dichloro-2-(morpholin-2-ylmethyl)phenyl)pyrrolo[2,1-f][1,2,4]triazin-6-yl)methyl)-1-methylpyrimidine-2,4(1H,3H)-dione hydrochloride]
O=c1cc[nH]c(=O)n1Cc1cc2c(-c3cc(Cl)cc4ccn(CC5(F)CCNCC5)c34)ncnn2c1 [Example 130, 3-((4-(5-chloro-1-((4-fluoropiperidin-4-yl)methyl)-1H-indol-7-yl)pyrrolo[2,1-f][1,2,4]triazin-6-yl)methyl)pyrimidine-2,4(1H,3H)-dione hydrochloride]
Cl.[2H]C([2H])([2H])n1ccc(=O)n(Cc2cc3c(-c4cc(Cl)cc5ccn(CC6(F)CCNCC6)c45)ncnn3c2)c1=O [Example 131, 3-((4-(5-chloro-1-((4-fluoropiperidin-4-yl)methyl)-1H-indol-7-yl)pyrrolo[2,1-f][1,2,4]triazin-6-yl)methyl)-1-(methyl-d3)pyrimidine-2,4(1H,3H)-dione hydrochloride]
